Entries after “also recorded” stand apart in the source; their conditions may differ.
What was measured:
[1] = tested on: SIVmac251; details: auranofin 0.4 mg/kg/day and BSO 450 mg/kg in combination with ART; cited from earlier work
[2] = tested on: MKN-28 cells; details: BSO 5, 10 and 25 mM; cisplatin 0.1-3.0 μg/ml; cited from earlier work
[3] = tested on: cellular GSH; details: 1.5 g/m^2 BSO at 12 hour intervals for six doses, alone or with 15 mg/m^2 melphalan; cited from earlier work
[4] = tested on: MKN-45 cells; details: BSO 5, 10 and 25 mM; cisplatin 0.01-1 μg/ml; cited from earlier work
[5] = BSO 500 mg/kg intraperitoneally; cisplatin 6 or 9 mg/kg; cited from earlier work
[6] = tested on: activated CD4^+ T-cells; test: Viability of activated primary CD4+ T-cells (MTT assay, FIG. 1); format: cell-based
Experimental: FIG. 1 is a graph showing the viability of activated primary CD4^+ T-cells treated with different concentrations of auranofin and buthionine sulfoximine (BSO), measured with the MTT assay. The cells were pre-incubated with the drugs for 24 hours and then activated with phytohemagglutinin (PHA) and assayed for viability 72 hours post activation (A) or the cells were activated with αCD3-αCD28 beads and then treated for 48 h with different combinations of auranofin and BSO (B). In (A), the effects of chloroquine are shown as a matter of comparison with a drug adopted in the clinic to limit immune hyperactivation. All concentrations are expressed in μM. In-vitro activity on activated CD4^+ T-cells and leukemia/lymphoma Methods. Resting CD4^+ T-cells, cultured T-cell leukemic Jurkat cells and Sup-T1 cells were left untreated or incubated for 24-72 hours with various concentrations of auranofin and/or buthionine sulfoximine (BSO), or chloroquine (only CD4^+ T-cells) or cisplatin (only Jurkat and Supt-T1 cells) CD4^+ T-cells were then activated by adding phytohemagglutinin (2 μg/mL). Alternatively, CD4^+ T-cells were first activated with anti-CD3/anti-CD28 beads and, after 72 hours, were left untreated or were incubated with auranofin and/or buthionine sulfoximine (BSO), or chloroquine. Cell viability was determined 24-72 hours post-activation with an MTT assay (CellTiter 96@ Non-Radioactive Cell Proliferation Assay) or MTS assay (CellTiter 960 AQueous One Solution Cell Proliferation Assay System; Promega). For the assay, 300×10^5 cells were re-suspended in 100 μL of medium and transferred to a 96-well plate. Cells were then incubated with 20 μL of a substrate solution (One Solution Reagent) for 3-4 hours in a CO2 (5%) incubator at 37° C. For the MTT assay, 100 μL of a Solubilization/Stop Solution were used to stop the reaction. Medium-only containing wells were included to serve as a blank control. Absorbance levels were recorded at 490 nm (MTS) or 570 nm (MTT) and, after subtraction of the blank, absorbance values were expressed as percentage of controls. Results. The results from the new dosage combinations were compared to the untreated cells as well as the cells treated with single drugs or “classical” dosages, in a multiple comparison analysis. Thus, the statistical significances shown are also significant compared to the untreated cells.

[7] = 5 mmol/kg (equivalent to 111.5 mg/kg) BSO 12 hours before the chemotherapeutic agent; cited from earlier work
[8] = tested on: murine mammary carcinoma cell line; details: auranofin/submicromolar BSO combination; cited from earlier work
[9] = tested on: Jurkat T-cells; test: Viability of Jurkat T-cells (MTT assay, FIG. 4); format: cell-based
Experimental: FIG. 4 is a graph showing the viability of Jurkat T-cells treated with different concentrations of cisplatin, auranofin and/or buthionine sulfoximine (BSO). Viability was measured 48 hours after treatment with the drugs at the indicated concentrations with the MTT assay. Absorbance values were normalized over untreated controls and expressed as percentage. Concentrations are expressed in μM. Data are expressed as mean±SEM and were. Asterisks show the significant differences [*q<0.05; *q<0.01; q is the P value corrected for multiple comparisons by controlling the False Discovery Rate (threshold for significance=q=0.05)]. NS: non-significant. The synergistic index (SI) is expressed where significant differences exist in comparison with the single drug treatments.
(§1) In-vitro activity on activated CD4^+ T-cells and leukemia/lymphoma Methods. Resting CD4^+ T-cells, cultured T-cell leukemic Jurkat cells and Sup-T1 cells were left untreated or incubated for 24-72 hours with various concentrations of auranofin and/or buthionine sulfoximine (BSO), or chloroquine (only CD4^+ T-cells) or cisplatin (only Jurkat and Supt-T1 cells) CD4^+ T-cells were then activated by adding phytohemagglutinin (2 μg/mL). Alternatively, CD4^+ T-cells were first activated with anti-CD3/anti-CD28 beads and, after 72 hours, were left untreated or were incubated with auranofin and/or buthionine sulfoximine (BSO), or chloroquine. Cell viability was determined 24-72 hours post-activation with an MTT assay (CellTiter 96@ Non-Radioactive Cell Proliferation Assay) or MTS assay (CellTiter 960 AQueous One Solution Cell Proliferation Assay System; Promega). For the assay, 300×10^5 cells were re-suspended in 100 μL of medium and transferred to a 96-well plate. Cells were then incubated with 20 μL of a substrate solution (One Solution Reagent) for 3-4 hours in a CO2 (5%) incubator at 37° C. For the MTT assay, 100 μL of a Solubilization/Stop Solution were used to stop the reaction. Medium-only containing wells were included to serve as a blank control. Absorbance levels were recorded at 490 nm (MTS) or 570 nm (MTT) and, after subtraction of the blank, absorbance values were expressed as percentage of controls.
(§2) Results. The results from the new dosage combinations were compared to the untreated cells as well as the cells treated with single drugs or “classical” dosages, in a multiple comparison analysis. Thus, the statistical significances shown are also significant compared to the untreated cells.

[10] = tested on: Supt-1 T-cells; test: Viability of Supt-1 T-cells (MTS assay, FIGS. 2 and 6); format: cell-based
Experimental: FIG. 2 is a graph showing the viability of Supt-1 T-cells treated with different concentrations of auranofin (AU) or buthionine sulfoximine (BSO). Viability was measured 72 hours after treatment with the drugs at the indicated concentrations with the MTS assay. Absorbance values were normalized over untreated controls and expressed as percentage. BSO=buthionine sulfoximine. Concentrations are expressed in μM. Data are expressed as mean t SEM and were analysed by the Turkey posttest following One Way ANOVA. *P<0.05; **P<0.01 ***P<0.001; ****P<0.0001. NS: non-significant. The synergistic index (SI) is expressed where significant differences exist in comparison with the single drug treatments.
FIG. 6 is a graph showing the viability of Supt-1 T-cells treated with different concentrations of cisplatin or buthionine sulfoximine (BSO). Viability was measured 72 hours after treatment with the drugs at the indicated concentrations with the MTS assay. Absorbance values were normalized over untreated controls and expressed as percentage. BSO=buthionine sulfoximine. Concentrations are expressed in μM; Asterisks show the significant differences [*q<0.05; **q<0.01; q is the P value corrected for multiple comparisons by controlling the False Discovery Rate (threshold for significance=q=0.05)]. NS: non-significant. The synergistic index (SI) is expressed where significant differences exist in comparison with the single drug treatments.
as §1, §2

[11] = tested on: HIV; test: Theoretical clinical example, HIV patient, with computational simulation of the viral reservoir; design: species or system human; details: auranofin 6 mg bid six months plus low-dose BSO (three one-week cycles, 0.08 g orally every 6 hours) with ART; baseline 22 copies/10^6 CD4^+ T-cells
From the text: A simulation of the viral load (RNA copies/ml) and viral reservoir (L cells) dynamics in a human model is provided. The trend of productively infected cells (T*) is also shown. The simulation is based on the five differential equations model in Rong and Perelson (2009). The peaks in the viral load correspond to the periods of activation of latently infected CD4+ T-cells. For starting data see Rong and Perelson (2009). Different proliferation rates (p) are shown (day^−1), corresponding to different drug treatments, or absence of any treatment. The bottom three panels depict a scenario without the drugs, with p=1.4 day^−1. The effects of BSO in combination with auranofin at plasma molar ratios (BSO/auranofin) of 1:0.25 (top three panels), 1:0.5 (second line of panels from top), 1:1 (third line of panels from top) are simulated. The plasma concentration of auranofin is […]. The activation function adopted to simulate lymphocyte encounter with antigens is illustrated in Rong and Perelson (2009).
The following is a theoretical example for a typical situation wherein the BSO is used at a reduced concentration, with a clinically-acceptable dosage of auranofin to treat a patient with an HIV diagnosis.
Patient received an HIV diagnosis in 2008. […]
The patient is subjected to quantification of viral DNA, the result of which is 22 copies/10^6 CD4^+ T-cells. […]

[12] = rats; cited from earlier work
[13] = tested on: glutathione levels; details: Malaker et al. 1994; cited from earlier work
[14] = tested on: Jurkat T-cells; test: Microphotographs of treated Jurkat T-cells (FIG. 5); format: cell-based; details: auranofin at a clinically-acceptable concentration added to BSO and cisplatin (FIG. 5)
From the text: FIG. 5 is microphotographs of Jurkat T-cells treated with different concentrations of cisplatin, auranofin or buthionine sulfoximine (BSO).

[15] = tested on: Supt-1 T-cells; test: Microphotographs of treated Supt-1 T-cells (FIG. 3); format: cell-based; details: 0.25 μM auranofin with submicromolar BSO (FIG. 3)
From the text: FIG. 3 is microphotographs of Supt-1 T-cells treated with different concentrations of auranofin or buthionine sulfoximine.

[16] = submicromolar BSO with cisplatin 10 μM

CCCCS(=N)(=O)CCC(N)C(=O)O (stereo not shown) [BSO, buthionine sulfoximine]
disease outcome following suspension of all therapies [1]: functional cure | effect of BSO pre-treatment on antitumor activity of cisplatin [2]: increased the antitumor activity of cisplatin | cellular GSH [3]: Marked depletion | effect of BSO pre-treatment on antitumor activity of cisplatin [4]: increased the antitumor activity of cisplatin | effect of BSO pre-treatment on antitumor effects of cisplatin [5]: enhanced | effect on viability compared with clinically achievable concentrations of Chloroquine ([6]; BSO 2 μM with auranofin): superior | limitation of cell viability compared with classically-described BSO concentration (250 μM) ([6]; BSO 2 μM with auranofin): similar | effect with auranofin in limiting the viability of activated CD4^+ T-cells ([6]; BSO as low as 2 μM in combination with auranofin, pre-incubated (FIG. 1A) or treated concomitantly to activation (FIG. 1B)): synergistic effect | effects of BSO on viability at submicromolar concentrations ([6]; with auranofin, cells activated with αCD3-αCD28 beads, then treated 48 h (FIG. 1B)): still present | effect on anti-cancer effects of cyclophosphamide, cisplatin or bleomycin [7]: increased the anti-cancer effects | directly cytotoxic/anticancer effect [8]: not able to detect | synergism of BSO and cisplatin ([9]; BSO (submicromolar) with cisplatin (10 μM), 48 h (FIG. 4)): Significant synergism; also recorded: true synergism | effect of auranofin and low concentrations of BSO on the anti-neoplastic effect of cisplatin ([9]; BSO with auranofin and cisplatin (FIGS. 4 and 5)): increase the anti-neoplastic effect of cisplatin | effect of BSO on susceptibility to cisplatin ([9]; FIG. 4): chemosensitizing effect | inhibition of cellular proliferation compared with BSO 250 μM [9, 16]: no statistical difference | difference between BSO only and the same BSO concentration in the presence of auranofin ([10]; BSO 250 μM): no significant difference | effect on cisplatin-induced cell death ([10]; BSO 250 μM with cisplatin): increased cisplatin-induced cell death | synergistic index ([10]; BSO 250 μM with cisplatin (FIG. 6), effect antagonistic): > 1.1 | effect of BSO only ([10]; BSO 250 μM, no auranofin): cytotoxic effect | effect of BSO on susceptibility to cisplatin ([10]; FIG. 6): chemosensitizing effect | viability ([10]; auranofin and BSO 250 μM): low viability | difference between combined drug treatment and the single drugs alone ([10]; submicromolar BSO with auranofin, e.g. auranofin 0.5+BSO 0.75 μM): extremely significant difference | inhibition of cellular proliferation compared with BSO 250 μM [10, 16]: no statistical difference | synergism of BSO and cisplatin ([10]; submicromolar BSO with cisplatin 10 μM (FIG. 6)): true synergism | anticancer effect ([10]; submicromolar BSO with clinically-achievable auranofin concentrations (FIGS. 2 and 3)): direct anticancer effect | viral reservoir after treatment [11]: < 10 copies of viral DNA/million cells | effect on nephrotoxicity of cisplatin [12]: reduce the nephrotoxicity | BSO concentration required to achieve a 90% decrease in glutathione levels [13]: 6 µM

CC(=O)OC[C@H]1O[C@@H]([S-])[C@H](OC(C)=O)[C@@H](OC(C)=O)[C@@H]1OC(C)=O.CCP(CC)CC.[Au+] [auranofin]
cell morphology [14]: increased the aforementioned morphological alterations | cell morphology [15]: morphological alterations linked to poor lymphoblastic cell viability | synergism in terms of cell viability ([10]; only with 0.5 μM auranofin, with BSO (FIG. 2)): significant synergism

— US12150925B2, “Buthionine sulfoximine and a metallodrug for the treatment of cancer, HIV or a rheumatic disease” (Istituto Superiore di Sanità, priority 2017, dated 2024)
